In test [1] the target is T1, H3 receptor (Mus musculus, UniProt P58406).
T1 construct: estimated in vivo by the measurement of the tele-methylhistamine level variations in the brain of mice; from tissue; host or cells: mouse brain, in vivo after p.o. administration
The test is described as follows: tele-methylhistamine level variations in the brain of mice after p.o. administration. Particulars: for ED50: mouse, po, brain tele-methylhistamine level, dose responsible for an half maximal effect; for ED50 (mg/kg/p.o.): tele-methylhistamine level in brain, dose for half maximal effect. The format is in vivo. An excerpt: At various time after p.o. administration of the. compounds, the effect of agonists and antagonists are evidenced by the decrease and increase respectively in telemethylhistamine level induced.
The changes are compared to those induced by reference compounds given in high dosage and this allows the calculation of the ED50 value for each compound which correspond to the dose responsible for an half maximal effect.

Test [2] addresses T2, H3 receptor (Rattus norvegicus, UniProt Q9QYN8).
T2 construct: release of neosynthesized tritiated histamine from rat cerebral cortex synaptosomes; from tissue; host or cells: rat cerebral cortex synaptosomes
Briefly: release of neosynthesized tritiated histamine from rat cerebral cortex synaptosomes. The format is biochemical.

The target in test [3] is T3, H3 receptor (Cavia porcellus, UniProt Q9JI35).
T3 construct: longitudinal muscle strips from guinea-pig small intestine were dissected out; from tissue; host or cells: guinea-pig small intestine longitudinal muscle strips
Briefly: guinea-pig ileum longitudinal muscle strips, electrically stimulated contraction, (R)α-methylhistamine curves with antagonist. It counts as biochemical. As to conditions: against (R)α-methylhistamine, 1 μM mepyramine present, read-out: H3-receptor antagonist activity pA2 (guinea-pig ileum) (converted). As to the method: Briefly, longitudinal muscle strips from guinea-pig small intestine were dissected out and incubated in a gassed O2/CO2 (95%/5%) modified Krebs-Ringer's bicarbonate medium at +37° C. in presence of 1 μM mepyramine to block the H1 receptor. After equilibration, contractile activity under stimulation (rectangular pulses of 15 V, 0.5 msec, 0.1 Hz) was recorded. Concentration-response curves of the effect of (R)α-Methylhistamine alone or together with the antagonist were established.

[4] abbreviates: H3 receptor, rat cerebral cortex synaptosomes, reversal of (R)α-methylhistamine inhibition of tritiated histamine release, read-out: Ki.

Like-named read-outs stand apart in the source and are kept apart here.

What is called ED50 is the dose that gives a 50% effect, or the effect in half of the subjects. High values mean weaker potency, low ones greater potency. A word on the Ki: it is a measure of affinity in units of concentration, obtained from inhibition or displacement.

T2 sequence (Q9QYN8 whole entry): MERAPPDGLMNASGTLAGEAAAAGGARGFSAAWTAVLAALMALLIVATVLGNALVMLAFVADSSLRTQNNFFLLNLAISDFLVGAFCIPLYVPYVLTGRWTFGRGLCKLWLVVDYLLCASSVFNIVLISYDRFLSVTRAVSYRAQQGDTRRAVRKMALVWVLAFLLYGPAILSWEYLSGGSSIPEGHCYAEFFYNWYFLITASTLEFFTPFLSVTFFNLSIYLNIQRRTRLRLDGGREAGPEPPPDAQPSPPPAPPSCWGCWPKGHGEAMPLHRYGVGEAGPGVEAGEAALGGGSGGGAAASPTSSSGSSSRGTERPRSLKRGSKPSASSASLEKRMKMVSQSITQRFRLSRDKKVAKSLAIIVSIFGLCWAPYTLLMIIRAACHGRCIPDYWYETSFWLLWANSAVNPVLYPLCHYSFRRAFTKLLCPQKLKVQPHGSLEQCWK
T1 sequence (P58406 whole entry): as the sequence (Q9QYN8 whole entry) above, with T15A, A286T, A290G, R387H, I389V counted along it
T3 sequence (Q9JI35 whole entry): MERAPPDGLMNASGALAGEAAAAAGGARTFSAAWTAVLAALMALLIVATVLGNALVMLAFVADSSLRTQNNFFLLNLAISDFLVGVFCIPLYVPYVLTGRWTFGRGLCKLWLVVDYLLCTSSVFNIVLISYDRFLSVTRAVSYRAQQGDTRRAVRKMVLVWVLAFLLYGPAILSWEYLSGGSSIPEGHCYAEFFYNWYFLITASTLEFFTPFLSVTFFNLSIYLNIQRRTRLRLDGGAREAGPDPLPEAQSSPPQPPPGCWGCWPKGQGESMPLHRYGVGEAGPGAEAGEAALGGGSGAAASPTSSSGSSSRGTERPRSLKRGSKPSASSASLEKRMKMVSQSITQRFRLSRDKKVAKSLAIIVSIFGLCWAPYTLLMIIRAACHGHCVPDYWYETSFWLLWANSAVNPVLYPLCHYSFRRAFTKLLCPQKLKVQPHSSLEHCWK

Turning to `C[C@H]1C[C@H](C)CN(CCCOc2ccc(C(=O)C3CC3)cc2)C1` (relative stereo) [Example 101, 1-[3-(4-cyclopropanecarbonylphenoxy)propyl]-trans-3,5 dimethylpiperidine], in test [1], it took a dose of 0.17 mg/kg to reach the 50% effect level (ED50).
`O=[N+]([O-])c1ccc(OCCCCCN2CCCC2)cc1` [Example 18, 1-[5-(4-nitrophenoxy)-pentyl]-pyrrolidine]: in test [2] (setting [4]), the Ki stood at 39 ± 11 nM. Besides, the “ED50 (mg/kg/p.o.)” value in test [1] is 1.1 mg/kg/p.o.
The corresponding values for `CCN(CC)CCCOc1ccc(C#N)cc1` [Example 43, N-[3-(4-cyanophenoxy)-propyl]-diethylamine] are 95 ± 28 nM and 0.50 mg/kg/p.o.
The corresponding values for `CCN(CC)CCCOc1ccc(C(C)=O)cc1` [Example 46, N-[3-(4-acetylphenoxy)-propyl]-diethylamine] are 20 ± 7 nM and 0.44 mg/kg/p.o.
In the same order, the values of `CC(O)c1ccc(OCCCCCN2CCCC2)cc1` (stereo not drawn) [Example 50, 1-{5-[4-(1-hydroxyethyl)-phenoxy]-pentyl}-pyrrolidine] are 28 ± 7 nM and 1.0 mg/kg/p.o.
Take `CCN(CC)CCCCOc1ccc(C#N)cc1` [Example 56, N-[4-(4-cyanophenoxy)-butyl]-diethylamine]: the inhibition constant (Ki) in test [2] (setting [4]) was 62 ± 15 nM. In addition, in test [1], the “ED50 (mg/kg/p.o.)” value is reported as 1.1 mg/kg/p.o.
For `N#Cc1ccc(OCCCN2CCCCC2)cc1` [Example 59, 1-[3-(4-cyanophenoxy)propyl]piperidine], the inhibitory constant (Ki) in test [2] was 11 ± 2 nM. Also, in test [1], it took a dose of 0.02 mg/kg to reach the 50% effect level (ED50) and the “ED50 (mg/kg/p.o.)” value worked out at 0.20 mg/kg/p.o.
On to `N#Cc1ccc(OCCCN2CCCCCC2)cc1` [Example 60, N-[3-(4-cyanophenoxy)-propyl]-hexamethyleneimine], for which the Ki in test [2] (setting [4]) was 8.7 ± 2.1 nM. In addition, the “ED50 (mg/kg/p.o.)” value in test [1] was found to be 0.64 mg/kg/p.o.
The corresponding values for `CCN(CC)CCCOc1ccc(C(C)O)cc1` (stereo not drawn) [Example 63, N-3-[4-(1-hydroxyethyl)-phenoxy]-propyl-diethylamine] are 60 ± 18 nM and 0.45 mg/kg/p.o.
The corresponding values for `CCN(CC)CCCOc1ccc(/C(C)=N/O)cc1` [Example 64, 4-(3-diethylaminopropoxy)-acetophenone-oxime] are 2.7 ± 0.9 nM and 0.8 mg/kg/p.o.
The corresponding values for `CC(=O)c1ccc(OCCCN2CCCC(C)C2)cc1` (stereo not drawn) [Example 66, 1-[3-(4-acetylphenoxy)-propyl]-3-methyl-piperidine] are 3.7 ± 0.5 nM and 0.3 mg/kg/p.o.
Take `CC(=O)c1ccc(OCCCN2CCC(C)CC2)cc1` [Example 68, 1-[3-(4-acetylphenoxy)-propyl]-4-methyl-piperidine]: the Ki in test [2] (setting [4]) came out at 4.6 ± 2 nM. In addition, the “ED50 (mg/kg/p.o.)” value in test [1] is recorded as 0.5 mg/kg/p.o.
For the compound `CCC(=O)c1ccc(OCCCN2CCCCC2)cc1` [Example 69, 1-[3-(4-propionylphenoxy)-propyl]-piperidine], the Ki in test [2] (setting [4]) is 4.7 ± 0.8 nM. The “ED50 (mg/kg/p.o.)” value in test [1] is recorded as 0.6 mg/kg/p.o.
In the case of `CCCC(=O)c1ccc(OCCCN2CCCCC2)cc1` [Example 74, 1-[3-(4-buyrylphenoxy)propyl]piperidine], the ED50 in test [1] is 0.21 mg/kg.
On to `O=C(c1ccc(OCCCN2CCCCC2)cc1)C1CC1` [Example 76, 1-[3-(4-cyclopropanecarbonylphenoxy)propyl]piperidine], for which the 50% effect level in test [1] (ED50) was put at a dose of 0.18 mg/kg. This ED50 and that of the compound before are within 1.5-fold of each other.
Still for that read-out and setting: for `CCC(=O)c1ccc(OCCCN2CCCC(C)C2)cc1` (stereo not drawn) [Example 88, 1-[3-(4-propionylphenoxy)propyl]-3-methylpiperidine] the value was 0.14 mg/kg.
For the compound `CCCCCNC(=O)OCCCN1CCCCC1` [Example 120, N-Pentyl-3-piperidinopropyl carbamate], the Kb in test [3] was 501 nM.
The same measure, in the same setting: for `CCCCCCC(=O)N1CCC(N2CCCCC2)CC1` [Example 124, N-Heptanoyl-1,4′-bipiperidine] the value was 398 nM; for `c1ccc2sc(NCCN3CCCCC3)nc2c1` [Example 131, 2-((2-Piperidinoethyl)amino)benzothiazole], 251 nM.
Same read-out and setting: with `c1ccc(CCCCCCN2CCCCC2)cc1` [Example 136, N-(6-Phenylhexyl)piperidine] the figure was 316 nM.

(Values after patent US20060247223A1, “Non-imidazole alkylamines as histamine H3- receptor ligands and their therapeutic applications” (priority 1998, published 2006).)
